Results published in patent publication US4353923A, “Pharmaceutical composition containing a benzofurancarboxamide derivative as the active ingredient” (Kyowa Hakko Kogyo Co., Ltd., priority 1980, dated 1982).
Structures can show the parent of a compound that is named as a salt.

Key:
male Wistar rats = assay: Anti-inflammatory activity: carrageenin edema method; assay type: in vivo; details: Rattus norvegicus, po, 3 hours after carrageenin, read-out: Inhibition ratio (paw swelling, vs control); for inhibition in vivo at 100 mg/kg: 100 mg/kg p.o.; for inhibition in vivo at 200 mg/kg: 200 mg/kg p.o.; for inhibition in vivo at 150 mg/kg: 150 mg/kg p.o.
Experimental: In this experiment, 5 male Wistar rats weighing 140±10 g were used as one group. Sixty minutes after oral administration of each drug to each animal, 0.1 ml of a 1% carrageenin solution as a phlogistic agent was injected into the plantar surface of the right hind paw of the animal to induce inflammation. The volume of the paw was measured before and 3 hours after the injection of the phlogistic agent. Swelling ratio and inhibition ratio in comparison with control group were calculated.

in vivo = details: mouse, po, mice, deaths counted for 7 days
Experimental: In this example, 3-7 male dd mice weighing 20±1 g were used as one group. Each drug was suspended in a 0.3% CMC solution and orally administered. After the administration, number of dead animals was counted for 7 days to determine LD50 value. As the reference drugs, mepirizole and benzydamine hydrochloride were dissolved in water and orally administered. The drugs and the reference drugs were also administered in the same manner as above in Examples 2-5.

male dd mice [1] = assay: Muscle relaxant activity: traction test; assay type: in vivo; details: 5 mice per group
Description: (§1) In this example, 5 male dd mice weighing 20±1 g were used as one group. Prior to the experiments, mice were placed on the rod having a diameter of 3 cm and rotating at 5 r.p.m. in the reverse direction of the rotation. […] The drugs were orally administered and the muscle relaxant activity with the passage of time was examined by the following tests.
Traction test: Forefeet of the same mouse were placed on a wire to observe whether it falls or not.
(§2) In each test, the drug was considered to have a muscle relaxant activity when the mouse fell.

male dd mice [2] = assay: Analgesic activity: acetic acid writhing; assay type: in vivo; details: Mus musculus, po, 1 h, acetic acid i.p. after 60 min, read-out: Inhibition ratio (writhes, vs control); for inhibition in vivo at 50 mg/kg: 50 mg/kg p.o.; for inhibition in vivo at 200 mg/kg: 200 mg/kg p.o.; for inhibition in vivo at 150 mg/kg: 150 mg/kg p.o.
Experimental: In this experiment, 10 male dd mice weighing 20±1 g were used as one group for examination of analgesic activity. Sixty minutes after oral administration of each drug to each animal, 0.2 ml of a 0.7% acetic acid solution was intraperitoneally administered to the animal. Starting 10 minutes after the administration of acetic acid, the number of writhes occurred in 10 minutes was counted. Average number of writhes and inhibition ratio in comparison with control group were calculated.

male dd mice [3] = assay: Muscle relaxant activity: slant test; assay type: in vivo; details: 5 mice per group
Experimental: as §1
Slant test: Each mouse was placed on a wire net inclined at an angle of 45° to observe whether it falls or not.
as §2

male dd mice [4] = assay: Anticonvulsant activity: maximal electroshock convulsion test; assay type: in vivo; details: Mus musculus, po, 1 h, 60 min after administration, read-out: Maximal electroshock convulsion test, inhibition ratio; for responders at 100 mg/kg: 100 mg/kg p.o.; for responders at 150 mg/kg: 150 mg/kg p.o.; for responders at 300 mg/kg: 300 mg/kg p.o.; for responders at 50 mg/kg: 50 mg/kg p.o.; for responders at 75 mg/kg: 75 mg/kg p.o.
Description: Anticonvulsant activity was examined according to maximal electroshock convulsion test.
In this experiment, 10 male dd mice weighing 23±1 g were used as one group. Each drug was orally administered to the animals. Sixty minutes after the administration, an electric current (2000 V, 50 mA) was applied to both eyes of the mouse for 0.2 second. Drug activity was judged according to whether tonic extensor seizures were observed or not.

male dd mice [5] = assay: Muscle relaxant activity: rotating rod test; assay type: in vivo; details: 5 mice per group
Experimental: as §1
Rotating rod test: The same mouse was placed on the rotating rod to observe whether it falls or not within 2 minutes.
as §2

COc1cc(C)nc(-n2nc(C)cc2OC)n1 [Mepirizole, mepirizole, reference compound]
inhibition in vivo at 100 mg/kg (male Wistar rats): 29.2% | inhibition in vivo at 200 mg/kg (male Wistar rats): 47% | LD50 at 168 h (in vivo): 500 to 1000 mg/kg | Number of dropped mice, traction test (male dd mice [1]; 150 mg/kg p.o., 1 hr): 2 mice | Number of dropped mice, traction test (male dd mice [1]; 150 mg/kg p.o., 2 hr): 0 mice | Number of dropped mice, traction test (male dd mice [1]; 150 mg/kg p.o., 3 hr): 0 mice | inhibition in vivo at 50 mg/kg (male dd mice [2]): 30.4% | inhibition in vivo at 200 mg/kg (male dd mice [2]): 84.7% | Number of dropped mice, slant test (male dd mice [3]; 150 mg/kg p.o., 1 hr): 3 mice | Number of dropped mice, slant test (male dd mice [3]; 150 mg/kg p.o., 2 hr): 1 mice | Number of dropped mice, slant test (male dd mice [3]; 150 mg/kg p.o., 3 hr): 0 mice | responders at 100 mg/kg (male dd mice [4]): 20% | responders at 150 mg/kg (male dd mice [4]): 85.7% | responders at 300 mg/kg (male dd mice [4]): 100% | Number of dropped mice, rotating rod test (male dd mice [5]; 150 mg/kg p.o., 1 hr): 5 mice | Number of dropped mice, rotating rod test (male dd mice [5]; 150 mg/kg p.o., 2 hr): 1 mice | Number of dropped mice, rotating rod test (male dd mice [5]; 150 mg/kg p.o., 3 hr): 0 mice

CN(C)CCCOc1nn(Cc2ccccc2)c2ccccc12 [Benzydamine hydrochloride, benzydamine hydrochloride, reference compound]
inhibition in vivo at 100 mg/kg (male Wistar rats): 14.4% | inhibition in vivo at 200 mg/kg (male Wistar rats): 23.5% | LD50 at 168 h (in vivo): 500 to 1000 mg/kg | Number of dropped mice, traction test (male dd mice [1]; 300 mg/kg p.o., 1 hr): 5 mice | Number of dropped mice, traction test (male dd mice [1]; 300 mg/kg p.o., 2 hr): 1 mice | Number of dropped mice, traction test (male dd mice [1]; 300 mg/kg p.o., 3 hr): 0 mice | inhibition in vivo at 50 mg/kg (male dd mice [2]): 0% | inhibition in vivo at 200 mg/kg (male dd mice [2]): 83.7% | Number of dropped mice, slant test (male dd mice [3]; 300 mg/kg p.o., 1 hr): 4 mice | Number of dropped mice, slant test (male dd mice [3]; 300 mg/kg p.o., 2 hr): 2 mice | Number of dropped mice, slant test (male dd mice [3]; 300 mg/kg p.o., 3 hr): 0 mice | responders at 50 mg/kg (male dd mice [4]): 35% | responders at 75 mg/kg (male dd mice [4]): 90% | responders at 100 mg/kg (male dd mice [4]): 100% | responders at 300 mg/kg (male dd mice [4]): 100% | Number of dropped mice, rotating rod test (male dd mice [5]; 300 mg/kg p.o., 1 hr): 5 mice | Number of dropped mice, rotating rod test (male dd mice [5]; 300 mg/kg p.o., 2 hr): 3 mice | Number of dropped mice, rotating rod test (male dd mice [5]; 300 mg/kg p.o., 3 hr): 2 mice

COc1ccc2oc(C(=O)N(C)C)c(C)c2c1 [Compound (F), 5-Methoxy-N,N,3-trimethyl-benzo[b]furan-2-carboxamide]
inhibition in vivo at 150 mg/kg (male Wistar rats): 0% | LD50 at 168 h (in vivo): > 1000 mg/kg | Number of dropped mice, traction test (male dd mice [1]; 150 mg/kg p.o., 1 hr): 1 mice | Number of dropped mice, traction test (male dd mice [1]; 150 mg/kg p.o., 2 hr): 0 mice | Number of dropped mice, traction test (male dd mice [1]; 150 mg/kg p.o., 3 hr): 0 mice | Number of dropped mice, traction test (male dd mice [1]; 300 mg/kg p.o., 1 hr): 5 mice | Number of dropped mice, traction test (male dd mice [1]; 300 mg/kg p.o., 2 hr): 3 mice | Number of dropped mice, traction test (male dd mice [1]; 300 mg/kg p.o., 3 hr): 1 mice | inhibition in vivo at 150 mg/kg (male dd mice [2]): 11% | Number of dropped mice, slant test (male dd mice [3]; 300 mg/kg p.o., 1 hr): 4 mice | Number of dropped mice, slant test (male dd mice [3]; 300 mg/kg p.o., 2 hr): 2 mice | Number of dropped mice, slant test (male dd mice [3]; 300 mg/kg p.o., 3 hr): 1 mice | responders at 150 mg/kg (male dd mice [4]): 30% | responders at 300 mg/kg (male dd mice [4]): 100% | Number of dropped mice, rotating rod test (male dd mice [5]; 150 mg/kg p.o., 1 hr): 1 mice | Number of dropped mice, rotating rod test (male dd mice [5]; 150 mg/kg p.o., 2 hr): 0 mice | Number of dropped mice, rotating rod test (male dd mice [5]; 150 mg/kg p.o., 3 hr): 0 mice | Number of dropped mice, rotating rod test (male dd mice [5]; 300 mg/kg p.o., 1 hr): 5 mice | Number of dropped mice, rotating rod test (male dd mice [5]; 300 mg/kg p.o., 2 hr): 5 mice | Number of dropped mice, rotating rod test (male dd mice [5]; 300 mg/kg p.o., 3 hr): 3 mice

Cc1c(C(=O)N(C)C)oc2ccc(Cl)cc12 [Compound (G), 5-Chloro-N,N,3-trimethyl-benzo[b]furan-2-carboxamide]
inhibition in vivo at 150 mg/kg (male Wistar rats): 45.7% | LD50 at 168 h (in vivo): > 1000 mg/kg | Number of dropped mice, traction test (male dd mice [1]; 75 mg/kg p.o., 1 hr): 1 mice | Number of dropped mice, traction test (male dd mice [1]; 75 mg/kg p.o., 2 hr): 1 mice | Number of dropped mice, traction test (male dd mice [1]; 75 mg/kg p.o., 3 hr): 1 mice | Number of dropped mice, traction test (male dd mice [1]; 150 mg/kg p.o., 1 hr): 3 mice | Number of dropped mice, traction test (male dd mice [1]; 150 mg/kg p.o., 2 hr): 3 mice | Number of dropped mice, traction test (male dd mice [1]; 150 mg/kg p.o., 3 hr): 2 mice | inhibition in vivo at 150 mg/kg (male dd mice [2]): 91.4% | Number of dropped mice, slant test (male dd mice [3]; 150 mg/kg p.o., 1 hr): 3 mice | Number of dropped mice, slant test (male dd mice [3]; 150 mg/kg p.o., 2 hr): 2 mice | Number of dropped mice, slant test (male dd mice [3]; 150 mg/kg p.o., 3 hr): 2 mice | Number of dropped mice, slant test (male dd mice [3]; 300 mg/kg p.o., 1 hr): 5 mice | Number of dropped mice, slant test (male dd mice [3]; 300 mg/kg p.o., 2 hr): 5 mice | Number of dropped mice, slant test (male dd mice [3]; 300 mg/kg p.o., 3 hr): 5 mice | responders at 50 mg/kg (male dd mice [4]): 0% | responders at 75 mg/kg (male dd mice [4]): 40% | responders at 100 mg/kg (male dd mice [4]): 100% | Number of dropped mice, rotating rod test (male dd mice [5]; 75 mg/kg p.o., 1 hr): 3 mice | Number of dropped mice, rotating rod test (male dd mice [5]; 75 mg/kg p.o., 2 hr): 1 mice | Number of dropped mice, rotating rod test (male dd mice [5]; 75 mg/kg p.o., 3 hr): 1 mice | Number of dropped mice, rotating rod test (male dd mice [5]; 150 mg/kg p.o., 1 hr): 5 mice | Number of dropped mice, rotating rod test (male dd mice [5]; 150 mg/kg p.o., 2 hr): 4 mice | Number of dropped mice, rotating rod test (male dd mice [5]; 150 mg/kg p.o., 3 hr): 3 mice

Cc1c(C(=O)N(C)C)oc2cccc(Cl)c12 [Compound (A), 4-Chloro-N,N,3-trimethyl-benzo[b]furan-2-carboxamide]
inhibition in vivo at 150 mg/kg (male Wistar rats): 33.4% | LD50 at 168 h (in vivo): > 1000 mg/kg | Number of dropped mice, traction test (male dd mice [1]; 75 mg/kg p.o., 1 hr): 3 mice | Number of dropped mice, traction test (male dd mice [1]; 75 mg/kg p.o., 2 hr): 0 mice | Number of dropped mice, traction test (male dd mice [1]; 75 mg/kg p.o., 3 hr): 0 mice | Number of dropped mice, traction test (male dd mice [1]; 150 mg/kg p.o., 1 hr): 5 mice | Number of dropped mice, traction test (male dd mice [1]; 150 mg/kg p.o., 2 hr): 3 mice | Number of dropped mice, traction test (male dd mice [1]; 150 mg/kg p.o., 3 hr): 1 mice | inhibition in vivo at 50 mg/kg (male dd mice [2]): 60.6% | inhibition in vivo at 150 mg/kg (male dd mice [2]): 100% | Number of dropped mice, slant test (male dd mice [3]; 300 mg/kg p.o., 1 hr): 4 mice | Number of dropped mice, slant test (male dd mice [3]; 300 mg/kg p.o., 2 hr): 3 mice | Number of dropped mice, slant test (male dd mice [3]; 300 mg/kg p.o., 3 hr): 3 mice | responders at 25 mg/kg (male dd mice [4]; 25 mg/kg p.o.): 10% | responders at 50 mg/kg (male dd mice [4]): 30% | responders at 75 mg/kg (male dd mice [4]): 80% | Number of dropped mice, rotating rod test (male dd mice [5]; 75 mg/kg p.o., 1 hr): 3 mice | Number of dropped mice, rotating rod test (male dd mice [5]; 75 mg/kg p.o., 2 hr): 2 mice | Number of dropped mice, rotating rod test (male dd mice [5]; 75 mg/kg p.o., 3 hr): 1 mice | Number of dropped mice, rotating rod test (male dd mice [5]; 150 mg/kg p.o., 1 hr): 5 mice | Number of dropped mice, rotating rod test (male dd mice [5]; 150 mg/kg p.o., 2 hr): 5 mice | Number of dropped mice, rotating rod test (male dd mice [5]; 150 mg/kg p.o., 3 hr): 2 mice
